Assay results taken from PubChem BioAssay AID2060908 (Molecular Pharmacology Branch, DTP, NCI, 2025).
Blank lines part the entries; values can stand above or below the molecule they belong to.

Tested on: 186277-243-T-J2-PDC complex spheroids, viability
Assay: Anticancer human tumor 186277-243-T-J2-PDC patient-derived colon adenocarcinoma cell line growth inhibition [RAS]
Conditions: for IC50: curve of first compound; for viability, T/C: stronger effect = lower value
Description: RAS pathway inhibitors in Combinations in Complex Spheroids
A high-throughput screen of multi-cell type tumor spheroids was designed to identify active combinations of RAS pathway inhibitors and targeted small molecules. Complex spheroids include a stromal component modeled by human endothelial cells (HUVEC) and fibroblasts modeled by human mesenchymal stem cells (MSCs). The concentration ranges selected for each drug and investigational agent were based upon clinically achievable concentrations if the clinical Cmax of the agent was known.
Compounds. The drugs and investigational agents: abemaciclib (NSC768073), cobimetinib (NSC768068), divarasib (GDC6063, NSC841802), docetaxel (NSC628503), GDC-1971 (RLY-1971, NSC841576), gemcitabine (NSC613327), inavolisib (NSC800729), ipatasertib (NSC767898), KB-0742 (NSC834161), MRTX-1133 (NSC836407), osimertinib (NSC779217), RMC-4630 (NSC839698), RMC-6236 (NSC851965), RMC-6291 (NSC852671), Ro-3306 (NSC812927), sapanisertib (NSC764658), SN-38 (NSC673596), staurosporine (NSC755774), SY5609 (NSC837396), and tovorafenib (DAY101, NSC766906), were obtained from the National Cancer Institute (NCI) Developmental Therapeutics Program Chemical Repository. The FDA-approved anticancer drug set is available from the NCI Developmental Therapeutics Program. […] The stock solutions were prepared in dimethyl sulfoxide (DMSO, Sigma-Aldrich, St. Louis, MO, cat. D2650) at 800-fold the tested concentration and stored at -70 degrees C prior to their use. All drugs and investigational agents were tested over a range starting from a high concentration at or near the clinical Cmax and decreasing in half-log increments. If the clinical Cmax for an agent had not been determined, the highest concentration tested was 10 microM.
Cell Culture. All cells were maintained in an incubator at 37 degrees C and 5% CO2 with 95% humidity. The PDC lines were cultured according to standard operating procedures established by the NCI PDMR. All PDCs were thawed and cultured in Matrigel-coated flasks prepared with a working solution of 1X Ham's F-12 nutrient mix, without supplementation (Invitrogen, Waltham, MA, cat. 11765054), 100 U/mL penicillin-streptomycin (Invitrogen, cat. 15140122), and 2.5% Matrigel (Corning Inc., Corning, NY, cat. 354248) for the first three passages. The 362531-283-R-J2-PDC and 782815-120-R-J1-PDC lines were cultured in 6C/Colon 1B media, which includes advanced DMEM/F-12 (Thermo Fisher Scientific, cat. 12634028), 10 mM HEPES (Thermo Fisher Scientific, cat. 15630080), 1X GlutaMAX supplement (Thermo Fisher Scientific, cat. 35050061), 0.1 mg/mL primocin (InvivoGen, San Diego, CA, cat. ant-pm-2), 10% defined fetal bovine serum, heat inactivated (HyClone Laboratories Inc., Logan, UT, cat. SH30070.03HI), 50% L-WRN conditioned media (ATCC, cat. CRL-3276), 1.25 mM N-Acetyl-L-cysteine (Sigma-Aldrich, cat. A9165), 10 mM nicotinamide (Sigma-Aldrich, cat. N0636), 1X B-27 supplement (Thermo Fisher Scientific, cat. 17504044), 1X N-2 supplement (Thermo Fisher Scientific, cat. 17502048), 50 ng/mL human EGF (Thermo Fisher Scientific, cat. PHG0311), and 10 microM Y-27632 dihydrochloride (Tocris Bioscience, cat. 1254). The K12877-001-R-J1-PDC line was cultured in 6I media, which includes all 6C/Colon 1B media plus 10 ng/mL human FGF-10 (PeproTech, cat. 100-26), 1 ng/mL human FGF-2 (PeproTech, cat. 100-18B), 1 µM prostaglandin E2 (Tocris Bioscience, cat. 2296), […] hydrocortisone (Sigma-Aldrich, cat. H4001), and […] bovine insulin (Sigma-Aldrich, cat. I6634). The K86415-001-R-J1-PDC line was cultured in 6D media, which includes all 6C/Colon 1B media components minus the L-WRN conditioned media. The 485176-168-R4-J1-PDC was cultured in PANC media, which includes all 6C/Colon 1B media plus 100 ng/mL human FGF-10 (PeproTech, cat. 100-26), 500 nM SB-431542 (Selleckchem, cat. S1067), and 10 nM gastrin (Tocris Bioscience, cat. 3006). […]

[1] = second compound 0.0316 µM, first compound 0.0316 µM
[2] = second compound 0.0316 µM, first compound 0.1 µM
[3] = second compound 0.0316 µM, first compound 0.316 µM
[4] = second compound 0.0316 µM, first compound 1 µM
[5] = second compound 0.1 µM, first compound 0.0316 µM
[6] = second compound 0.1 µM, first compound 0.1 µM
[7] = second compound 0.1 µM, first compound 0.316 µM
[8] = second compound 0.1 µM, first compound 1 µM
[9] = second compound 0.316 µM, first compound 0.0316 µM
[10] = second compound 0.316 µM, first compound 0.1 µM
[11] = second compound 0.316 µM, first compound 0.316 µM
[12] = second compound 0.316 µM, first compound 1 µM
[13] = second compound 1 µM, first compound 0.0316 µM
[14] = second compound 1 µM, first compound 0.1 µM
[15] = second compound 1 µM, first compound 0.316 µM
[16] = second compound 1 µM, first compound 1 µM
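Also: spheroids exposed to compounds for 7 days before viability read.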

IC50 (second compound 0.0316 µM): < 0.00316 µM
IC50 (second compound 0.1 µM): < 0.00316 µM
IC50 (second compound 0.316 µM): < 0.00316 µM
IC50 (second compound 1 µM): < 0.00316 µM
IC50 (second compound 3.16 µM): < 0.00316 µM
IC50 (second compound 10 µM): < 0.00316 µM
SMILES: Nc1ccn(C2OC(CO)C(O)C2(F)F)c(=O)n1 (centres undefined) + C#Cc1c(F)ccc2cc(O)cc(-c3ncc4c(N5CC6CCC(C5)N6)nc(OCC56CCCN5CC(F)C6)nc4c3F)c12
viability, T/C (second compound 0.0316 µM, first compound 0.00316 µM): 47%
viability, T/C (second compound 0.0316 µM, first compound 0.01 µM): 8.41%
viability, T/C [1]: 7.36%
viability, T/C [2]: 8.79%
viability, T/C [3]: 6.46%
viability, T/C [4]: 8.3%
viability, T/C (second compound 0.1 µM, first compound 0.00316 µM): 28.4%
viability, T/C (second compound 0.1 µM, first compound 0.01 µM): 8.66%
viability, T/C [5]: 8.73%
viability, T/C [6]: 6.07%
viability, T/C [7]: 7.33%
viability, T/C [8]: 7.04%
viability, T/C (second compound 0.316 µM, first compound 0.00316 µM): 14.2%
viability, T/C (second compound 0.316 µM, first compound 0.01 µM): 8.55%
viability, T/C [9]: 7.4%
viability, T/C [10]: 7.69%
viability, T/C [11]: 5.4%
viability, T/C [12]: 7.34%
viability, T/C (second compound 1 µM, first compound 0.00316 µM): 9.92%
viability, T/C (second compound 1 µM, first compound 0.01 µM): 7.97%
viability, T/C [13]: 7.96%
viability, T/C [14]: 6.96%
viability, T/C [15]: 7.3%
viability, T/C [16]: 5.65%
viability, T/C (second compound 3.16 µM, first compound 0.00316 µM): 7.24%
viability, T/C (second compound 3.16 µM, first compound 0.01 µM): 6.5%
viability, T/C (second compound 3.16 µM, first compound 0.0316 µM): 6.06%
viability, T/C (second compound 3.16 µM, first compound 0.1 µM): 5.7%
viability, T/C (second compound 3.16 µM, first compound 0.316 µM): 4.35%
viability, T/C (second compound 3.16 µM, first compound 1 µM): 5.91%
viability, T/C (second compound 10 µM, first compound 0.00316 µM): 8.28%
viability, T/C (second compound 10 µM, first compound 0.01 µM): 7.76%
viability, T/C (second compound 10 µM, first compound 0.0316 µM): 5.58%
viability, T/C (second compound 10 µM, first compound 0.1 µM): 5.8%
viability, T/C (second compound 10 µM, first compound 0.316 µM): 5.91%
viability, T/C (second compound 10 µM, first compound 1 µM): 6.36%

IC50 (second compound 0.00316 µM): 4.05 µM
IC50 (second compound 0.01 µM): 4.92 µM
IC50 (second compound 0.0316 µM): 4.81 µM
IC50 (second compound 0.1 µM): 5.15 µM
IC50 (second compound 0.316 µM): 4.83 µM
IC50 (second compound 1 µM): 4.94 µM
SMILES: CC1(O)CCCC1n1c(=O)c(C(F)F)cc2cnc(NC3CCN(S(C)(=O)=O)CC3)nc21 (centres undefined) + C=CC(=O)N1CCN(c2nc(OCC3CCCN3C)nc3c(F)c(-c4nc(N)cc(C)c4C(F)(F)F)c(Cl)cc23)C(C)C1
viability, T/C (second compound 0.00316 µM, first compound 0.0316 µM): 95.5%
viability, T/C (second compound 0.00316 µM, first compound 0.1 µM): 113%
viability, T/C (second compound 0.00316 µM, first compound 0.316 µM): 101%
viability, T/C (second compound 0.00316 µM, first compound 1 µM): 99.3%
viability, T/C (second compound 0.00316 µM, first compound 3.16 µM): 63%
viability, T/C (second compound 0.00316 µM, first compound 10 µM): 2.71%
viability, T/C (second compound 0.01 µM, first compound 0.0316 µM): 92.8%
viability, T/C (second compound 0.01 µM, first compound 0.1 µM): 96.8%
viability, T/C (second compound 0.01 µM, first compound 0.316 µM): 93.5%
viability, T/C (second compound 0.01 µM, first compound 1 µM): 96.8%
viability, T/C (second compound 0.01 µM, first compound 3.16 µM): 79.3%
viability, T/C (second compound 0.01 µM, first compound 10 µM): 2.97%
viability, T/C [1]: 101%
viability, T/C [2]: 135%
viability, T/C [3]: 87.8%
viability, T/C [4]: 107%
viability, T/C (second compound 0.0316 µM, first compound 3.16 µM): 77.5%
viability, T/C (second compound 0.0316 µM, first compound 10 µM): 2.9%
viability, T/C [5]: 95.3%
viability, T/C [6]: 109%
viability, T/C [7]: 105%
viability, T/C [8]: 89.9%
viability, T/C (second compound 0.1 µM, first compound 3.16 µM): 87%
viability, T/C (second compound 0.1 µM, first compound 10 µM): 2.79%
viability, T/C [9]: 91.3%
viability, T/C [10]: 118%
viability, T/C [11]: 88.1%
viability, T/C [12]: 84.1%
viability, T/C (second compound 0.316 µM, first compound 3.16 µM): 81.8%
viability, T/C (second compound 0.316 µM, first compound 10 µM): 2%
viability, T/C [13]: 117%
viability, T/C [14]: 123%
viability, T/C [15]: 94.9%
viability, T/C [16]: 115%
viability, T/C (second compound 1 µM, first compound 3.16 µM): 80.7%
viability, T/C (second compound 1 µM, first compound 10 µM): 1.52%
